{"source": "paper PMC11012005", "about": "(International Journal of Molecular Sciences, 2024)", "key": {"mice [1]": {"test_system": "mice", "conditions": "repeated s.c. administration, 15 µmol/kg (5 mg/kg); cited from earlier work"}, "mice [2]": {"test_system": "mice", "conditions": "s.c., 31 µmol/kg (10 mg/kg); cited from earlier work"}, "human MOR [3]": {"target": "T1, human MOR (Homo sapiens, UniProt P35372)", "T1 construct": "expressed in transfected cells; host or cells: CHO cells (CHO-hMOR), gift of Dr. Lawrence Toll, SRI International", "test": "[35S]GTPγS binding assay, CHO-hMOR cell membranes", "type": "biochemical", "conditions": "for % stim.: relative to reference MOR agonist DAMGO, mean ± SEM, n = 3–4", "from_the_text": "All data are presented as mean ± SEM. A p < 0.05 was considered statistically significant."}, "human NOP receptor": {"target": "T2, human NOP receptor (Homo sapiens, UniProt P41146)", "T2 construct": "expressed in transfected cells; host or cells: CHO cells (CHO-hNOP), gift of Dr. Lawrence Toll, SRI International", "test": "Radioligand binding, [3H]nociceptin, CHO-hNOP cell membranes", "conditions": "for Ki: CHO-hNOP membranes, [3H]nociceptin 0.1 nM, n = 3, read-out: Opioid Receptor Binding (Ki, nM) NOP"}, "human KOR": {"target": "T3, human KOR (Homo sapiens, UniProt P41145)", "T3 construct": "expressed in transfected cells; host or cells: CHO cells (CHO-hKOR), gift of Dr. Lawrence Toll, SRI International", "test": "Radioligand competition binding, [3H]U69,593, CHO-hKOR cell membranes", "conditions": "for Ki: CHO-hKOR membranes, [3H]U69,593 1 nM, mean ± SEM, n = 3, read-out: Opioid Receptor Binding (Ki, nM) KOR"}, "[4]": {"test": "Body weight changes during chronic s.c. treatment", "type": "in vivo, mice", "conditions": "chronic administration of 7.8 µmol/kg s.c. twice daily for 5 days, vs. saline", "protocol": "(§1) Experiments were performed with male CD1 mice (8–10 weeks old, 30–35 g body weight) purchased from Janvier Labs (Le Genest-Saint-Isle, France). All animal care and experimental procedures were in accordance with the ethical guidelines for the animal welfare standards of the European Communities Council Directive (2010/63/EU) and were approved by the Committee of Animal Care of the Austrian Federal Ministry of Science and Research. Mice were group-housed (maximum of 5 animals per cage) in a temperature- (21–22 °C) and humidity-controlled (60–70%) specific pathogen-free room with a 12 h light/dark cycle and with free access to food and water. LENART01 and naloxone were prepared in sterile physiological 0.9% saline solution. […]\n(§2) Opioid physical dependence was assessed using naloxone-induced withdrawal syndrome in mice as described previously. […] Animals were immediately placed in clear acrylic cylinders, and signs of opioid withdrawal were recorded for 15 min. Monitored behaviors included vertical jumps, paw tremor, head shakes, urine output, the presence/absence of diarrhea, feces output and body weight loss. For each mouse, a global withdrawal score was calculated by summing the values obtained for each sign (one point was assigned to every 3 jumps and 5 paw tremors, respectively, whereas all other signs were given the absolute values recorded during the test). […]"}, "mice [5]": {"test_system": "mice", "test": "Rotarod test after s.c. administration", "type": "in vivo", "conditions": "7.8 and 39 µmol/kg, any time point, vs. saline", "protocol": "(§3) Experiments were performed with male CD1 mice (8–10 weeks old, 30–35 g body weight) purchased from Janvier Labs (Le Genest-Saint-Isle, France). All animal care and experimental procedures were in accordance with the ethical guidelines for the animal welfare standards of the European Communities Council Directive (2010/63/EU) and were approved by the Committee of Animal Care of the Austrian Federal Ministry of Science and Research. Mice were group-housed (maximum of 5 animals per cage) in a temperature- (21–22 °C) and humidity-controlled (60–70%) specific pathogen-free room with a 12 h light/dark cycle and with free access to food and water. LENART01 and naloxone were prepared in sterile physiological 0.9% saline solution. Tested doses of LENART01 were 0.78, 3.9, 7.8 and 39 µmol/kg (1, 5, 10 and 50 mg/kg, respectively). LENART01 or vehicle (saline) were s.c. administered in a volume of 10 µL/g body weight.\nAnimals were accustomed to the equipment in two training sessions (30 min apart) one day before testing. […] The time spent on the drum was recorded for each mouse before (baseline) and after the s.c. administration of saline or test compound (i.e., 30, 60 and 120 min). […] The rotarod data are expressed as percentage (%) changes from the rotarod latencies obtained before (baseline, B) and after drug administration (test, T) and were calculated as follows: 100 × (T/B). […]"}, "[6]": {"test": "Pharmacokinetic study: detection in brain homogenate by LC-DAD-MS (BBB permeability)", "type": "in vivo", "conditions": "7.8 and 39 µmol/kg s.c., mice, brains two hours after treatment", "protocol": "as §3\nTwo hours after the s.c. administration of LENART01 (doses of 7.8 and 39 µmol/kg), the mice were sacrificed and the brains were removed, washed with sterile physiological 0.9% saline and frozen in dry ice until use. […] The MS spectra were recorded in the negative ion mode only. The UV spectra were recorded over the range of 200–600 nm. […] The presence of the analyzed compound was checked by the monitoring of its pseudomolecular ion eluting at ca. 10 min. […]"}, "human MOR [7]": {"target": "T1, human MOR", "test": "Radioligand competition binding, [3H]DAMGO, CHO-hMOR cell membranes", "conditions": "read-out: Opioid Receptor Binding (Ki, nM) MOR"}, "mice [8]": {"test_system": "mice", "test": "Naloxone-precipitated withdrawal syndrome after chronic s.c. treatment", "type": "in vivo", "conditions": "7.8 µmol/kg s.c. twice daily for 5 days; naloxone 1 mg/kg s.c. two hours after last injection; vs. saline", "protocol": "as §1, §2"}, "human DOR": {"target": "T4, human DOR (Homo sapiens, UniProt P41143)", "T4 construct": "expressed in transfected cells; host or cells: CHO cells (CHO-hDOR), gift of Dr. Lawrence Toll, SRI International", "test": "Radioligand competition binding, [3H]DPDPE, CHO-hDOR cell membranes"}}, "note": "Non-standard residues stand in square brackets, D forms with d. Residues, ends and D or L forms follow the SMILES beside them.", "data": [{"molecule": "CN1CC[C@]23c4c5ccc(O)c4O[C@H]2[C@@H](O)C=C[C@H]3[C@H]1C5", "note": "[morphine]", "values": [{"measurement": "Naloxone-induced withdrawal syndrome", "setting": "mice [1]", "result": "significant naloxone-induced withdrawal syndrome"}, {"measurement": "Effect on time on the rotarod", "setting": "mice [2]", "result": "significantly reduced time on the rotarod"}]}, {"molecule": "C[C@@H](NC(=O)[C@@H](N)Cc1ccc(O)cc1)C(=O)NCC(=O)N(C)[C@@H](Cc1ccccc1)C(=O)NCCO", "note": "[DAMGO, reference compound]", "values": [{"measurement": "% stim.", "setting": "human MOR [3]", "result": 100, "unit": "%"}]}, {"molecule": "C[C@@H](NC(=O)[C@@H](N)Cc1ccc(O)cc1)C(=O)N[C@@H](Cc1ccccc1)C(=O)NCC(=O)N[C@@H](Cc1ccc(O)cc1)C(=O)N1CCC[C@H]1C(=O)N[C@@H](CO)C(N)=O", "note": "[Dermorphin, reference compound]", "values": [{"measurement": "Ki", "setting": "human NOP receptor", "result": "> 10000", "unit": "nM"}, {"measurement": "Specific binding to human NOP receptor", "setting": "human NOP receptor; at the concentration of 10 µM, [3H]nociceptin", "result": "no substantial binding"}, {"measurement": "Ki", "setting": "human KOR", "result": "2710 ± 873", "unit": "nM"}, {"measurement": "% stim.", "setting": "human MOR [3]", "result": "104 ± 8", "unit": "%"}]}, {"molecule": "CSCC[C@H](NC(=O)[C@H](Cc1ccccc1)NC(=O)[C@H](Cc1c[nH]cn1)NC(=O)CNC(=O)[C@H](CO)NC(=O)[C@@H]1CCCN1C(=O)[C@H](Cc1ccc(O)cc1)NC(=O)CNC(=O)[C@H](Cc1ccccc1)NC(=O)[C@@H](C)NC(=O)[C@@H](N)Cc1ccc(O)cc1)C(N)=O", "note": "[LENART01] (H-Y[dA]FGYPSGHFM-NH2)", "values": [{"measurement": "Effect on body weights", "setting": "[4]", "result": "did not have any significant effect on the body weights"}, {"measurement": "Effect on rotarod latencies (motor behavior)", "setting": "mice [5]", "result": "no significant alterations in the rotarod latencies"}, {"measurement": "Transport across the BBB (signal in brain homogenate)", "setting": "[6]", "result": "no detectable signal"}, {"measurement": "Ki", "setting": "human NOP receptor", "result": "> 10000", "unit": "nM"}, {"measurement": "Selectivity Ki Ratios NOP/MOR", "setting": "human NOP receptor; Ki ratio NOP/MOR", "result": ">900"}, {"measurement": "Ki", "setting": "human KOR", "result": "1310 ± 226", "unit": "nM"}, {"measurement": "Selectivity Ki Ratios KOR/MOR", "setting": "human KOR; Ki ratio KOR/MOR", "result": 119}, {"measurement": "EC50", "setting": "human MOR [3]", "result": "48.5 ± 10.6", "unit": "nM"}, {"measurement": "% stim.", "setting": "human MOR [3]", "result": "110 ± 7", "unit": "%"}, {"measurement": "Ki", "setting": "human MOR [7]", "result": "11 ± 1.5", "unit": "nM"}, {"measurement": "Naloxone-precipitated withdrawal signs", "setting": "mice [8]", "result": "did not induce withdrawal signs"}, {"measurement": "Ki", "setting": "human DOR; CHO-hDOR membranes, [3H]DPDPE 1 nM, mean ± SEM, n = 3, read-out: Opioid Receptor Binding (Ki, nM) DOR", "result": "227 ± 47", "unit": "nM"}, {"measurement": "Selectivity Ki Ratios DOR/MOR", "setting": "human DOR; Ki ratio DOR/MOR", "result": 21}]}]}
